{"source": "the NIST ThermoML archive (doi:10.1016/j.jct.2005.08.005)", "assay": "refractive index (other wavelength) (dimensionless); xn = mol fraction of the nth substance listed", "conditions": "101.3 kPa, Liquid, Wavelength=632.8 nm, Method described in references 3 and 4 of the article", "note": "± gives the expanded uncertainty stated by the source."}
{"molecule": "N#Cc1ccccc1", "note": "[benzonitrile] + CCCCCCCCCCCCCCCC", "values": [{"measurement": "refractive index", "setting": "294.62 K, x1 = 1", "result": "1.5246 ± 0.0002"}, {"measurement": "refractive index", "setting": "295.4 K, x1 = 0.0997", "result": "1.4353 ± 0.0002"}, {"measurement": "refractive index", "setting": "296.2 K, x1 = 0.1982", "result": "1.4385 ± 0.0002"}, {"measurement": "refractive index", "setting": "296.22 K, x1 = 0.3022", "result": "1.4432 ± 0.0002"}, {"measurement": "refractive index", "setting": "296.49 K, x1 = 0.8855", "result": "1.499 ± 0.0002"}, {"measurement": "refractive index", "setting": "296.97 K, x1 = 1", "result": "1.5235 ± 0.0002"}, {"measurement": "refractive index", "setting": "297.19 K, x1 = 0.0997", "result": "1.4346 ± 0.0002"}, {"measurement": "refractive index", "setting": "297.59 K, x1 = 0.1982", "result": "1.438 ± 0.0002"}, {"measurement": "refractive index", "setting": "298.03 K, x1 = 0.3972", "result": "1.4472 ± 0.0002"}, {"measurement": "refractive index", "setting": "298.19 K, x1 = 0.3022", "result": "1.4423 ± 0.0002"}, {"measurement": "refractive index", "setting": "298.57 K, x1 = 0.8855", "result": "1.498 ± 0.0002"}, {"measurement": "refractive index", "setting": "299.03 K, x1 = 0.0997", "result": "1.4338 ± 0.0002"}, {"measurement": "refractive index", "setting": "299.08 K, x1 = 1", "result": "1.5224 ± 0.0002"}, {"measurement": "refractive index", "setting": "299.56 K, x1 = 0.3972", "result": "1.4466 ± 0.0002"}, {"measurement": "refractive index", "setting": "299.75 K, x1 = 0.3022", "result": "1.4416 ± 0.0002"}, {"measurement": "refractive index", "setting": "299.78 K, x1 = 0.1982", "result": "1.437 ± 0.0002"}, {"measurement": "refractive index", "setting": "300.77 K, x1 = 0.0997", "result": "1.433 ± 0.0002"}, {"measurement": "refractive index", "setting": "301.05 K, x1 = 0.3022", "result": "1.441 ± 0.0002"}, {"measurement": "refractive index", "setting": "301.05 K, x1 = 0.8855", "result": "1.4969 ± 0.0002"}, {"measurement": "refractive index", "setting": "301.17 K, x1 = 0.1982", "result": "1.4365 ± 0.0002"}, {"measurement": "refractive index", "setting": "301.26 K, x1 = 0.3972", "result": "1.4459 ± 0.0002"}, {"measurement": "refractive index", "setting": "301.39 K, x1 = 1", "result": "1.5213 ± 0.0002"}, {"measurement": "refractive index", "setting": "301.64 K, x1 = 0.1982", "result": "1.4362 ± 0.0003"}, {"measurement": "refractive index", "setting": "302.7 K, x1 = 0.0997", "result": "1.4323 ± 0.0002"}, {"measurement": "refractive index", "setting": "302.75 K, x1 = 0.3972", "result": "1.4452 ± 0.0002"}, {"measurement": "refractive index", "setting": "302.86 K, x1 = 0.3022", "result": "1.4403 ± 0.0002"}, {"measurement": "refractive index", "setting": "302.96 K, x1 = 0.4976", "result": "1.4519 ± 0.0003"}, {"measurement": "refractive index", "setting": "303.42 K, x1 = 1", "result": "1.5203 ± 0.0002"}, {"measurement": "refractive index", "setting": "303.45 K, x1 = 0.7947", "result": "1.481 ± 0.0003"}, {"measurement": "refractive index", "setting": "303.59 K, x1 = 0.8855", "result": "1.4957 ± 0.0002"}, {"measurement": "refractive index", "setting": "303.7 K, x1 = 0.4976", "result": "1.4515 ± 0.0002"}, {"measurement": "refractive index", "setting": "303.82 K, x1 = 0.1982", "result": "1.4353 ± 0.0002"}, {"measurement": "refractive index", "setting": "304.08 K, x1 = 0.0997", "result": "1.4317 ± 0.0002"}, {"measurement": "refractive index", "setting": "304.21 K, x1 = 0.3972", "result": "1.4446 ± 0.0002"}, {"measurement": "refractive index", "setting": "304.25 K, x1 = 0.3022", "result": "1.4397 ± 0.0002"}, {"measurement": "refractive index", "setting": "304.25 K, x1 = 0.4976", "result": "1.4512 ± 0.0002"}, {"measurement": "refractive index", "setting": "304.4 K, x1 = 0.7947", "result": "1.4806 ± 0.0002"}, {"measurement": "refractive index", "setting": "304.69 K, x1 = 0.595", "result": "1.4585 ± 0.0003"}, {"measurement": "refractive index", "setting": "304.73 K, x1 = 0.4976", "result": "1.451 ± 0.0002"}, {"measurement": "refractive index", "setting": "305.22 K, x1 = 0.7947", "result": "1.4802 ± 0.0002"}, {"measurement": "refractive index", "setting": "305.41 K, x1 = 0.3972", "result": "1.444 ± 0.0002"}, {"measurement": "refractive index", "setting": "305.44 K, x1 = 0.6854", "result": "1.4668 ± 0.0003"}, {"measurement": "refractive index", "setting": "305.47 K, x1 = 0.595", "result": "1.4582 ± 0.0002"}, {"measurement": "refractive index", "setting": "305.66 K, x1 = 0.1982", "result": "1.4346 ± 0.0002"}, {"measurement": "refractive index", "setting": "305.66 K, x1 = 0.4976", "result": "1.4507 ± 0.0002"}, {"measurement": "refractive index", "setting": "305.86 K, x1 = 0.0997", "result": "1.4309 ± 0.0002"}, {"measurement": "refractive index", "setting": "305.86 K, x1 = 0.3022", "result": "1.439 ± 0.0002"}, {"measurement": "refractive index", "setting": "305.89 K, x1 = 0.7947", "result": "1.4799 ± 0.0002"}, {"measurement": "refractive index", "setting": "305.92 K, x1 = 1", "result": "1.5191 ± 0.0002"}, {"measurement": "refractive index", "setting": "305.98 K, x1 = 0.8855", "result": "1.4946 ± 0.0002"}, {"measurement": "refractive index", "setting": "306.25 K, x1 = 0.6854", "result": "1.4665 ± 0.0002"}, {"measurement": "refractive index", "setting": "306.37 K, x1 = 0.595", "result": "1.4578 ± 0.0002"}, {"measurement": "refractive index", "setting": "306.66 K, x1 = 0.6854", "result": "1.4663 ± 0.0002"}, {"measurement": "refractive index", "setting": "306.68 K, x1 = 0.7947", "result": "1.4795 ± 0.0002"}, {"measurement": "refractive index", "setting": "307.36 K, x1 = 0.595", "result": "1.4574 ± 0.0002"}, {"measurement": "refractive index", "setting": "307.66 K, x1 = 0.6854", "result": "1.4658 ± 0.0002"}, {"measurement": "refractive index", "setting": "307.86 K, x1 = 0.8855", "result": "1.4937 ± 0.0002"}, {"measurement": "refractive index", "setting": "308.18 K, x1 = 0.595", "result": "1.457 ± 0.0002"}, {"measurement": "refractive index", "setting": "308.42 K, x1 = 0.6854", "result": "1.4655 ± 0.0002"}]}
